Data set [1] in a line: Oral administration test in rats (plasma levels). As to conditions: 10 mg/kg p.o. In kind it is in vivo, rat. As for the experimental part: Each test compound was dissolved in a 0.01N hydrochloric acid solution, and the solution was perorally administered to male or female rats at 10 mg/5 mL/kg. Blood samples (0.25 mL each) were collected 30, 60, 120, 180, 240, and 360 minutes after administration. The collected blood samples were centrifuged for five minutes at 4° C. and 9,000 g, to thereby prepare plasma samples. The plasma samples were stored at −30° C. before measurement. The samples were subjected to the extraction procedure*, and plasma levels of the test compound were determined through LC/MS/MS.
(§1) The extraction was performed in a manner similar to that of the test on stability against metabolism in human liver microsome.

The next data set deals with T1, ACAT (Mus musculus, UniProt Q61263).
T1 construct: endogenous in cells; host or cells: J774 (J774A) cells
T1 sequence (Q61263 1-540): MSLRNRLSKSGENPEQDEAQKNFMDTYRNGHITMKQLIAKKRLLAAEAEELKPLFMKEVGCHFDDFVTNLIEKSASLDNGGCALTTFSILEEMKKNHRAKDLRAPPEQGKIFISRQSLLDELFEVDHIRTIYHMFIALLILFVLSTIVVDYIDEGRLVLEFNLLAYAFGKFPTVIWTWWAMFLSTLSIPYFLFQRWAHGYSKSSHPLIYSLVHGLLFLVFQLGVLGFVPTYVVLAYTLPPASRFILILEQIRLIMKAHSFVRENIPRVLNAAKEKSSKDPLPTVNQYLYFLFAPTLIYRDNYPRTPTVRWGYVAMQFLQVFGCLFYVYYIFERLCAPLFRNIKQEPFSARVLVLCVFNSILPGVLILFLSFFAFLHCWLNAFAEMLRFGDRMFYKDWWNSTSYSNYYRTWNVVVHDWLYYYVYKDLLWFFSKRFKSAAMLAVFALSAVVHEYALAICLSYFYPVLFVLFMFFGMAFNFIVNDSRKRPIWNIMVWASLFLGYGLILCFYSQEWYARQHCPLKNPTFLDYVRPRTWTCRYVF
In words: Test for ACAT inhibitory activity in J774A cells (cholesterol ester production). In kind it is cell-based. The procedure:
J774 cells (2×10^5 cells/well) were seeded on a 24-well plate and incubated for 24 hours in DMEM (10% FBS, 500 μL). After replacement with a new medium, 25-hydroxycholesterol (10 μg/mL) and ACAT inhibitor (final concentration: 0, 10^−9 to 10^−5 mol/L) were added thereto, followed by incubation for 18 hours. After washing with 0.9% sodium chloride, the lipid was extracted with hexane-isopropanol (3:2) (250 μL) and then with hexane-isopropanol (3:2) (250 μL) again. The extracts were combined, and the solvent was removed. The thus-obtained cholesterol ester (CE) was quantified through the fluorescent enzyme assay. The cells from which the lipid had been extracted were subjected to protein assay (micro BCA assay), to thereby determine the amount of CE per mg of protein.

Data set [2] can be described thus: Test on stability against metabolism in human liver microsome. In kind it is in vitro ADME. Particulars: 30 minutes after initiation of reaction, 37° C., FIG. 1. The procedure: In accordance with Table 2 described below, an NRS (NADPH regenerating system) solution and 16% human serum albumin were added to 0.1 mol/L phosphate buffer (pH 7.4), and a solution of a test compound (100 μM) in acetonitrile (0.01 mL) was added thereto. The mixture was pre-incubated for five minutes in a warm bath at 37° C., and human liver microsome (POOLED HUMAN LIVER MICROSOMES, Lot. No. 20, product of GENTEST) was added thereto, followed by allowing reaction for 30 minutes in a warm bath at 37° C. An aliquot (0.25 mL) was collected from the reaction mixture 0 and 30 minutes after the start of reaction, followed by extraction*. The amount of the test compound was determined through HPLC. Residual percentage of the unchanged compound after 30 minutes was calculated based on the following equation: peak area after 30 minutes/peak area at 0 minute)×100.
To each sample, gkycine buffer (pH 10, 1.0 mL), an internal standard substance (0.1 mL), and tert-butyl methyl ether (5.0 mL) were added. The mixture was shaken for ten minutes and then centrifuged at 2,500 rpm […], and the […] was collected.
(Liver microsomes are a subcellular fraction often used to study metabolism.)

Data set [3] can be described thus: Solubility test (Japanese Pharmacopoeia Solution I). In kind it is physicochemical. Particulars: simulated gastric fluid, kinetic from dmso stock, pH 1.2, filtrate through 0.2-μm filter, HPLC. As for the experimental part:
Each test compound was dissolved in acetonitrile to form a 100 μM solution, and the solution was added to Japanese Pharmacopoeia Solution I to form a 1000 ng/mL solution. The resultant solution was stirred for ten minutes, and an aliquot (1 mL) was placed into an injection tube and then passed through a 0.2-μm filter (HLC-DISK 13, water/solvent, Kanto Kagaku Kabushiki-kaisya). The filtrate (0.5 mL) was subjected to the extraction procedure*, and the amount of the test compound was determined through HPLC.
as §1

The source of these data is patent US7223764B2, “2,4-bis (trifluoroethoxy)pyridine compound and drug containing the compound” (Kowa Co., Ltd., priority 2003, dated 2007).

SMILES strings stand for the structures. In brackets after ≈: the same amount, converted by molar mass. Structures can show the parent of a compound that is named as a salt.

On to `Cc1cc(OCC(F)(F)F)c(NC(=O)CN2CCN(CCSc3nc4ccc(F)cc4[nH]3)CC2)c(OCC(F)(F)F)n1` [Compound (1a), 2-[4-[2-(5-fluorobenzimidazol-2-ylthio)ethyl]piperazin-1-yl]-N-[2,4-bis(2,2,2-trifluoroethoxy)-6-methylpyridin-3-yl]acetamide], for which the melting point – broadly, the temperature of the solid-liquid transition – was in the range of 182 to 182.7 °C. Moreover, in data set [1] (Female rat), the exposure (AUC) (commonly concentration integrated over time) was 5100 ng·h/mL and the highest level (Cmax) was 3410 ng/mL. For the same molecule, in data set [1] (Male rat), the AUC is 367 ng·h/mL and the peak level (Cmax) was 418 ng/mL. Moreover, half-maximal inhibition against ACAT (IC50) required 87 nM. Besides, in data set [2], the “residual percentage of the unchanged compound” value is listed as 27%. For the same molecule, the concentration in solution in data set [3] (solubility at 10 min) came to 0.562 µg/mL (≈ 0.9 µM).

Regarding `Cc1cc(OCC(F)(F)F)c(NC(=O)CN2CCN(CCSc3nc4cc(F)c(F)cc4[nH]3)CC2)c(OCC(F)(F)F)n1` [Compound (1b), 2-[4-[2-(5,6-difluorobenzimidazol-2-ylthio)ethyl]piperazin-1-yl]-N-[2,4-bis(2,2,2-trifluoroethoxy)-6-methylpyridin-3-yl]acetamide], the melting point was 191 to 192 °C. Moreover, in data set [1] (Female rat), the AUC is 6550 ng·h/mL and the highest level (Cmax) was 2840 ng/mL. In addition, in data set [1] (Male rat), the AUC was 917 ng·h/mL and the peak concentration (Cmax) (in general, the peak of the concentration-time curve) stood at 614 ng/mL. In addition, on ACAT, half-maximal inhibition (IC50) required 75 nM. The “residual percentage of the unchanged compound” value in data set [2] amounted to 62%. The amount in solution in data set [3] (solubility at 10 min) came to 0.422 µg/mL (≈ 0.657 µM).

Regarding `CSc1cc(C)nc(SC)c1NC(=O)CN1CCN(CCSc2nc3ccccc3[nH]2)CC1` [Compound (B).HCl, reference compound], the AUC in data set [1] (Female rat) was 2470 ng·h/mL; in data set [1] (Male rat) it was 200 ng·h/mL. Moreover, the Cmax in data set [1] (Female rat) was 1170 ng/mL; in data set [1] (Male rat) it was 207 ng/mL. Moreover, in data set [2], the “residual percentage of the unchanged compound” value turned out to be 16%.
